Values of other authors in patent US8759352B2, “1-(4-ureidobenzoyl)piperazine derivatives” (Merck Sharp & Dohme B.V., priority 2008, dated 2014).

Legend:
[1] = tested on: vascular smooth muscle cell; settings: in vitro and in vivo; Blaschke et al. 2004
[2] = tested on: neointima formation; settings: in vitro and in vivo; Blaschke et al. 2004
[3] = tested on: tumours; settings: animal model of prostate cancer; Chuu et al. 2006
[4] = tested on: β-amyloid; settings: Riddell et al. 2007

## O=S(=O)(c1ccccc1)N(CC(F)(F)F)c1ccc(C(O)(C(F)(F)F)C(F)(F)F)cc1 [Example T0901317]
[1]
  vascular smooth muscle cell proliferation: inhibit
[2]
  neointima formation following balloon injury: inhibit
[3]
  progression of tumours: delayed progression of tumours
[4]
  deposition of β-amyloid: lower deposition of β-amyloid
  memory: improve memory
